As a reminder, the IC50 is the concentration that gives 50% inhibition. Read a low IC50 as higher potency. The MIC is the smallest concentration in the dilution series that meets the test's criterion for growth inhibition.

Converted amounts (≈) assume the structure as drawn.

Four compounds from ChEMBL document CHEMBL1145697, “Halishigamides AD, New Cytotoxic Oxazole-Containing Metabolites from Okinawan Sponge Halichondria sp” (J Nat Prod, 1997) can be followed below.

One assay has as its system L1210. As to the kind of experiment: Cytotoxicity against mouse L1210 cells. In kind it is functional, cell-based.
The subject of another assay is KB. As to the kind of experiment: Cytotoxicity against human KB cells. Format: functional, cell-based.
Assay [1] has as its system Trichophyton mentagrophytes. As to the kind of experiment: Antifungal activity against Trichophyton mentagrophytes. Format: functional.

Turning to `COC(CC1OC(=O)CC(O)C/C=C/C(=O)C(C)C(OC)C(=O)NC(=O)c2coc(n2)-c2coc(n2)/C=C/CCC1C)C(C)CCC(=O)C(C)C(C/C=C/N(C)C=O)OC` (configuration not stated) [HALISHIGAMIDE B], the half-inhibitory concentration (IC50) in the assay with L1210 was found to be 4.4 µg/mL (≈ 5.23 µM); in the assay with KB, 7.5 µg/mL (≈ 8.92 µM). Besides, the lowest concentration to inhibit growth in assay [1] (MIC) was 25 µg/mL (≈ 29.7 µM).

For `CO[C@@H](C[C@@H]1OC(=O)C[C@@H](O)C[C@H](N)CC(=O)[C@H](C)[C@H](OC)c2coc(n2)-c2coc(n2)-c2coc(n2)/C=C/CC[C@H]1C)[C@@H](C)CCC(=O)[C@H](C)[C@@H](C/C=C/N(C)C=O)OC` [HALISHIGAMIDE A], the IC50 in the assay with L1210 came to 0.0036 µg/mL (≈ 0.00422 µM); in the assay on KB it was 0.012 µg/mL (≈ 0.0141 µM). In addition, the lowest concentration to inhibit growth in assay [1] (MIC) was 0.1 µg/mL (≈ 0.117 µM).

Take `COC(=O)c1coc(/C=C/CCC(C)C(CC(OC)C(C)CCC(=O)C(C)C(C/C=C/N(C)C=O)OC)OC(=O)CC(O)C/C=C/C(=O)C(C)C(OC)c2coc(C(N)=O)n2)n1` (configuration not stated) [HALISHIGAMIDE D]: the IC50 in the assay on L1210 amounted to 1.1 µg/mL (≈ 1.26 µM); in the assay with KB, 1.8 µg/mL (≈ 2.06 µM). In assay [1], this compound registered an MIC of 6.5 µg/mL (≈ 7.45 µM).

As for `COC(=O)c1coc(-c2coc(/C=C/CCC(C)C(CC(OC)C(C)CCC(=O)C(C)C(C/C=C/N(C)C=O)OC)OC(=O)CC(O)C/C=C/C(=O)C(C)C(OC)C(N)=O)n2)n1` (configuration not stated) [HALISHIGAMIDE C], the values for the IC50 in the assay on L1210 and in the assay with KB were 5.2 µg/mL (≈ 5.96 µM) and 6.5 µg/mL (≈ 7.45 µM), respectively. In assay [1], this compound had an MIC of 25 µg/mL (≈ 28.6 µM).
